Measured values taken from US11541050B2, “Pyrimidine derivatives for the treatment of viral infections” (JANSSEN SCIENCES IRELAND UC, priority 2011, dated 2023).

Legend:
Format in all cases: cell-based
Parameters in all cases: unit not given here
[1] = target: T1, human TLR7 (wild type sequence) (Homo sapiens, UniProt Q9NYK1); assay: TLR7 cellular NFκB-luc reporter assay, wild type TLR7; details: lowest effective concentration, wild type TLR7
T1 construct: expressed in transfected cells; host or cells: HEK293
T1 sequence (Q9NYK1 27-1049): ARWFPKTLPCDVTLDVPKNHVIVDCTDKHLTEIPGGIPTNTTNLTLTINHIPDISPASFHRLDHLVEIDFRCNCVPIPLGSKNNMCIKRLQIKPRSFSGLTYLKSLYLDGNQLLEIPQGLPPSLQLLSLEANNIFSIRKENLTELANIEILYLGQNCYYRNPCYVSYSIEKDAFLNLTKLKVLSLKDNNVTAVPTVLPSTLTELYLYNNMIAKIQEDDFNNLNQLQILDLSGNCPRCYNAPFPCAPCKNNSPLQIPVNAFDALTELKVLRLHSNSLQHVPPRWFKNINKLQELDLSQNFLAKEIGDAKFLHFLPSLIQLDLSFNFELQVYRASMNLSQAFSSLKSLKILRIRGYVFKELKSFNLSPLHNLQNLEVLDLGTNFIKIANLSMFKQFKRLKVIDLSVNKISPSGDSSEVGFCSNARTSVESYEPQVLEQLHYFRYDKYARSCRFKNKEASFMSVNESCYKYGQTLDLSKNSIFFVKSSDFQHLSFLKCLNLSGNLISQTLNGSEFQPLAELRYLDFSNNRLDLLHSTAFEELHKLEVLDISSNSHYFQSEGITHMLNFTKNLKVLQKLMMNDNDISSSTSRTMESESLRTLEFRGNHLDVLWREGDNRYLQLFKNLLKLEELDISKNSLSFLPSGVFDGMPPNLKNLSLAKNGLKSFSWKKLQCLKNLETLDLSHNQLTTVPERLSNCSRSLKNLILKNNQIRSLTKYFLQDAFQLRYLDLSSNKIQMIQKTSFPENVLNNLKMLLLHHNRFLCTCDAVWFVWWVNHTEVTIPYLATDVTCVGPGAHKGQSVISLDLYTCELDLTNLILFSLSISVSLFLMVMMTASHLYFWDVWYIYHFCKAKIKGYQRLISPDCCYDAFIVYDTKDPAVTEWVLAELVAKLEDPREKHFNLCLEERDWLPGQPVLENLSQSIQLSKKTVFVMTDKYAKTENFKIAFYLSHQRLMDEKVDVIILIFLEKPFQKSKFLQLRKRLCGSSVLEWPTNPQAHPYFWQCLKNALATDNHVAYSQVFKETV
Summary of the method: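 HEK293 cells transiently co-transfected (48 h, 37 °C) with CMV-TLR7 or TLR8 plasmid (wild type or second-LRR deletion mutant) plus NFκB-luc reporter. Cells exposed to compound for 6 h at 37 °C, 5% CO2; luciferase read-out. LEC from quadruplicate dose-response curves: concentration giving effect at least two fold above assay standard deviation.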

[2] = tested on: human TLR7 mutant sequence comprising a deletion in the second leucine-rich repeat; assay: TLR7 cellular NFκB-luc reporter assay, mutant TLR7 with deletion in the second leucine-rich repeat; details: lowest effective concentration
Summary of the method: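 HEK293 cells transiently co-transfected with CMV-driven mutant TLR7 or TLR8 plasmid plus NFκB-luc reporter, cultured 48 h at 37 °C, then exposed to compound for 6 h at 37 °C, 5% CO2. Luciferase luminescence measured; dose-response curves from quadruplicates.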

[3] = tested on: human TLR8 mutant sequence comprising a deletion in the second leucine-rich repeat; assay: TLR8 cellular NFκB-luc reporter assay, mutant TLR8 with deletion in the second leucine-rich repeat; details: lowest effective concentration
Protocol: The ability of compounds to activate human TLR7 and/or TLR8 was assessed in a cellular reporter assay using HEK293 cells transiently transfected with a TLR7 or TLR8 expression vector and NFκB-luc reporter construct. In one instance the TLR expression construct expresses the respective wild type sequence or a mutant sequence comprising a deletion in the second leucine-rich repeat of the TLR.
Briefly, HEK293 cells were grown in culture medium (DMEM supplemented with 10% FCS and 2 mM Glutamine). For transfection of cells in 10 cm dishes, cells were detached with Trypsin-EDTA, transfected with a mix of CMV-TLR7 or TLR8 plasmid (750 ng), NFκB-luc plasmid (375 ng) and a transfection reagent and incubated for 48 hours at 37° C. in a humidified 5% CO2 atmosphere. […] Thirty microliters of cells were then dispensed into each well in 384-well plates, where 10 μL of compound in 4% DMSO was already present. Following 6 hours incubation at 37° C., 5% CO2, the luciferase activity was determined by adding 15 μl of Steady Lite Plus substrate (Perkin Elmer) to each well and readout performed on a ViewLux ultraHTS microplate imager (Perkin Elmer). Dose response curves were generated from measurements performed in quadruplicates.

Row | Compound | TLR7-wt_LEC [1] | TLR7-dIRR2_LEC [2] | TLR8-dIRR2_LEC [3]
1 | CCC[C@@H](CCO)Nc1nc(N)ncc1OCc1cccnn1 [Compound 279] | 0.724 | 1.100 | 0.034
2 | CCCCNc1nc(N)ncc1OCC(C)O (stereo not drawn) [Compound 290] | >25 | 9.110 | 12.460
3 | CCC[C@@H](CO)Nc1nc(N)ncc1OCc1ccccn1 [Compound 239] | 0.464 | 0.247 | 0.145
4 | CCC[C@@H](CO)Nc1nc(N)ncc1OCc1nccc(OC)c1OC [Compound 214] | 0.134 | 0.593 | 0.027
5 | CCCC[C@@H](CO)Nc1nc(N)ncc1OCc1cn2ccccc2n1 [Compound 218] | 0.154 | 0.352 | 0.032
6 | CCCC[C@@H](CCO)Nc1nc(N)ncc1OCCCc1ccc(OC)cc1 [Compound 225] | 0.385 | 2.180 | 0.129
7 | CCCCNc1nc(N)ncc1OCc1ccc(CO)cc1 [Compound 281] | 0.472 | 1.630 | 0.191
8 | CCCC[C@@H](CO)Nc1nc(N)ncc1OCc1cc(C)n(C)n1 [Compound 255] | 0.552 | 0.515 | 0.315
9 | CCC[C@@H](CCO)Nc1nc(N)ncc1OCCCc1ccc(OC)cc1 [Compound 226] | 0.274 | 1.050 | 0.036
10 | CCC[C@@H](CCO)Nc1nc(N)ncc1OCCOC(C)C [Compound 301] | 1.170 | 2.640 | 0.534
11 | CCC[C@@H](C)Nc1nc(N)ncc1OCc1nccc(OC)c1OC [Compound 252] | 4.020 | >25 | 1.310
12 | CCCC[C@@H](CCO)Nc1nc(N)ncc1OCc1nccc(OC)c1OC [Compound 245] | 0.040 | 0.507 | 0.011
13 | CCCC[C@@H](CO)Nc1nc(N)ncc1OCCCc1ccc2c(c1)OCO2 [Compound 228] | 1.410 | 1.510 | 0.112
14 | CCC[C@@H](CCO)Nc1cc(O[C@@H]2CCc3c(Cl)ccnc32)nc(N)n1 [Compound 283] | 17.180 | 8.320 | 4.350
15 | CCC[C@H](C)Nc1nc(N)ncc1OCc1cn2ccccc2n1 [Compound 251] | 0.164 | 0.556 | 0.087
16 | CCCC[C@@H](CCO)Nc1nc(N)ncc1OCCOC [Compound 266] | 1.070 | 1.890 | 0.557

Row | Compound | TLR7-wt_LEC [1] | TLR7-dIRR2_LEC [2] | TLR8-dIRR2_LEC [3]
17 | CCC[C@@H](C)Nc1nc(N)ncc1OCc1cn2ccccc2n1 [Compound 253] | 12.760 | >25 | 6.230
18 | CCCC[C@@H](CCO)Nc1nc(N)ncc1OCc1ccncc1 [Compound 291] | 0.120 | 0.407 | 0.106
19 | CCCC[C@@H](CCO)Nc1nc(N)ncc1OCCOC(C)C [Compound 296] | 0.664 | 2.540 | 0.310
20 | CCC[C@@H](CCO)Nc1nc(N)ncc1OCCCc1ccc2c(c1)OCO2 [Compound 238] | 0.234 | 1.920 | 0.091
21 | CCC[C@@H](CCO)Nc1nc(N)ncc1OCCOC [Compound 268] | 2.100 | 1.800 | 1.170
22 | CCCC[C@@H](CCO)Nc1nc(N)ncc1OCc1nnn[nH]1 [Compound 297] | 2.810 | >25 | 2.540
23 | CCCC[C@@H](CCO)Nc1nc(N)ncc1OCc1c[nH]nn1 [Compound 298] | 0.394 | 2.840 | 0.058
24 | CCCC[C@@H](CCO)Nc1nc(N)ncc1OCc1cccc(C)n1 [Compound 295] | 0.047 | 0.430 | 0.034
25 | CCCC[C@@H](CO)Nc1nc(N)ncc1OCc1nccc(OC)c1OC [Compound 217] | 0.106 | 0.433 | 0.007
26 | CCC[C@@H](C)Nc1nc(N)ncc1OCc1nccc2ccccc12 [Compound 219] | 0.125 | 1.640 | 0.029
27 | CCC[C@@H](CCO)Nc1nc(N)ncc1OCc1cc(C)nn1C [Compound 264] | 0.215 | 0.489 | 0.087
28 | CCC[C@@H](CCO)Nc1nc(N)ncc1OCc1cc(C)n(C)n1 [Compound 246] | 0.157 | 1.150 | 0.048
29 | CCCCNc1nc(N)ncc1OCc1ccc2cccnc2n1 [Compound 236] | 0.241 | 0.333 | 0.031
30 | CCCC[C@@H](CCO)Nc1nc(N)ncc1OCc1nn(C)c2ccccc12 [Compound 240] | 0.008 | 0.442 | 0.005
31 | CCCCNc1nc(N)ncc1OCCN1CCOCC1 [Compound 269] | 24.550 | 8.280 | 9.750
